Experimental data from article PMC6383986, “Fragment-Based Covalent Ligand Screening Enables Rapid Discovery of Inhibitors for the RBR E3 Ubiquitin Ligase HOIP” (Journal of the American Chemical Society, 2019).

Biological target: T1, 3 × FLAG-tagged HOIP RBR in HEK293T cells (Homo sapiens, UniProt Q96EP0)
T1 construct: expressed in transfected cells; host or cells: HEK293T, transient, modified pcDNA3.1(+)
Test: ABPP in-gel fluorescence, competition with TCO probe (15)
Type: cell-based
Conditions: 30 μM 7 h pretreatment, then 3 μM (15) 2 h; vs (11i), (17), DMSO
Text: PCR purification kit QIAquick Qiagen 28104
Maxiprep Kit Endofree plasmid Maxi Kit Qiagen 12362
E coli Competent DH5α New England C2987H
E coli Competent BL21 GOLD(DE3) Agilent 230132
LDS loading buffer NuPAGE 4× LDS loading buffer Invitrogen NP0008
Trypsin Cell Culture TE Trypsin Gibco R-001-100
Trypsin Sequencing Grade Modified Trypsin Promega V511A
Chymotrypsin Sequencing Grade Chymotrypsin Promega V106A
Cy5-Tetrazine Fluorescent probe for IEDDA click chemistry DC Biosciences CCR-1189-1 Tz-PEG4-Biotin Tetrazine linked biotin Jena Bioscience CLK-027-25
NeutrAvidin beads High capacity NeutrAvidin agarose resin Thermo 29204 […]
5.1 Activity-based protein profiling – In-gel fluorescence […]
HEK293T cells were cultured and transfected with 3×FLAG-tagged HOIP RBR wild type or C885A mutant, or mock as described in section 4.8 above. […] The cells were harvested and lysed (50 mM Tris-HCl, pH 7.5, 1.5 mM MgCl2, 150 mM NaCl, 5% glycerol, 0.8% v/v IGEPAL-CA630, 25 mM NaF, 1 mM Na3VO4, complete protease inhibitor), and the protein concentration was determined by the BCA assay as described in section […]
50 µL. The lysates were incubated at 23 °C, 600 rpm (Eppendorph Thermomixer) for 1 h, then analyzed by SDS PAGE (section 4.5) and in-gel fluorescence (LI-COR) at 700 nm, and by Western Blot as described in section 4.6 (Figure 6E and Supplementary Figures S15, S16). […]

T1 sequence (Q96EP0 697-1072): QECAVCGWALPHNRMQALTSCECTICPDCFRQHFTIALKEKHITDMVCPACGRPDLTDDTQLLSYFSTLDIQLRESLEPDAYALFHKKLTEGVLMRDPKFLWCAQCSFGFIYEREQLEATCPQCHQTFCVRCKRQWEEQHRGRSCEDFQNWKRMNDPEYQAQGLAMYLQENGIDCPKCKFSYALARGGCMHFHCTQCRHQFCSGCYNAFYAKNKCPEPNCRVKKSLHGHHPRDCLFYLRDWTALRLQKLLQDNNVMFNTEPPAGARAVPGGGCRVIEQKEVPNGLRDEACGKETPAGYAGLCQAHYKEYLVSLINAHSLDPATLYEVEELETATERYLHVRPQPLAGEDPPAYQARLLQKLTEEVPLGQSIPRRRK

Compound: COC(=O)/C=C/CNC(=O)c1cc2c([nH]c1=O)CCCC2 [Compound 11a]
- in-gel fluorescence of HOIP RBR labeled by probe (15): significant reduction of the in-gel fluorescence of HOIP RBR
